Reference: patent US12428396B2, “Fused pyridine ring derivative, preparation method therefor, and pharmaceutical use thereof” (priority 2019, dated 2025)
Read-outs that look alike come from different tables or passages of the source.

What was measured:
[1] = Beagle pharmacokinetic study (ig/sc/iv, plasma LC/MS/MS); assay type: in vivo, beagles; details: for AUC(0-t) / half-life / Cmax: dog, plasma; for AUC(0-t): read-out: Area under curve AUC0-72; for half-life: read-out: Half life T½ (converted); for Cmax: read-out: Plasma concentration Cmax
Description: Taking beagles as test animals, and the drug concentrations in dog plasma at various times after intragastric administration (ig)/subcutaneous injection (sc)/intravenous injection (iv) administration of the compound of Example 1-1 and Positive Control Example 1 were measured by using LC/MS/MS method. The pharmacokinetic performance in beagles of the compounds of the present disclosure was studied and the pharmacokinetic profile thereof was evaluated.
18 non-naïve beagles (999M-004, medicilon) with 7-12 kg, every 3 of which were in one group.
The intragastric administration group: a certain amount of the compounds was weighed, ethanol with a volume of 5% of the final volume, 20% PG, 45% PEG300 and 30% deionized water were added (the pH was adjusted to be about 2 with 0.01 N HCl), and the reaction mixture was subjected to ultrasonic stirring for uniform mixing to give an administration solution at a concentration of 0.8 mg/mL.
The subcutaneous injection administration group: a certain amount of the compounds was weighed, 2% aqueous poloxamer 188 solution with a proper volume was added, and the reaction mixture was subjected to ultrasonic stirring for uniform mixing to give a suspension administration solution at a concentration of 200 mg/mL.
The intravenous administration group: a certain amount of the compounds was weighed, 5% volume of DMSO, 30% PG, 30% PEG400 and 35% volume of normal saline were added, and the reaction mixture was subjected to vortex ultrasonic stirring for uniform mixing to give an administration solution at a concentration of 0.5 mg/mL.
Beagles were intragastrically administered with the compounds after fasting overnight, at a dose of 4.0 mg/kg and a volume of 5.0 mL/kg.
Beagles were subcutaneously injected with the compounds after fasting overnight, at a dose of 6.0 mg/kg and a volume of 0.03 mL/kg.
Beagles were intravenously injected with the compounds after fasting overnight, at a dose of 1.0 mg/kg and a volume of 2 mL/kg.
Beagles were intragastrically administered with the compound of Example 1-1/Positive Control Example 1, and 1 mL of blood was collected from the orbit before administration and at 0.25 h, 0.5 h, 1.0 h, 2.0 h, 4.0 h, 6.0 h, 8.0 h, 12.0 h, 24 h, 32 h, 48 h, 56 h and 72 h after administration, respectively, and placed in EDTA-K2 anticoagulant blood collection tubes, plasma was centrifuged (centrifugal force: 2200 g, centrifugation time: 10 min, 2-8° C.), and stored at −80° C., and food intake was resumed 3 h after administration.
The compound of Example 1-1/Positive Control Example 1 was subcutaneously injected to beagles, and 1 mL of blood was collected before administration and at 1.0 h, 3.0 h, 8.0 h, 24 h, 48 h, 72 h, 96 h, 168 h, 336 h, 432 h and 504 h after administration, respectively, and placed in EDTA-K2 anticoagulant blood collection tubes, plasma was centrifuged (centrifugal force: 2200 g, centrifugation time: 10 min, 2-8° C.), and stored at −80° C., and food intake was resumed 3 h after administration.
The content of the compound to be tested in the plasma of beagles was determined after the intragastric administration of the compounds at different concentrations: 20 μL of the plasma in beagles at each time after administration was taken, 200 μL of methanol containing internal standard (100 ng/mL) was added, the reaction mixture was subjected to vortex mixing for 1 min, and centrifuged for 7 min (centrifugal force: 18000 g), and 1 μL of the supernatant was taken from the plasma sample for LC/MS/MS analysis. […]

[2] = Monkey pharmacokinetic study (iv, plasma LC/MS/MS); assay type: in vivo, cynomolgus monkeys; details: cynomolgus monkey, intravenous injection, 1 mg/kg
Description: Taking cynomolgus monkeys as test animals and the drug concentrations in monkey plasma at various times after intravenous injection (iv) of the compounds of Example 1-1 and Positive Control Example 1 were measured by using LC/MS/MS method. The pharmacokinetic performance in cynomolgus monkeys of the compounds of the present disclosure was studied and the pharmacokinetic profile thereof was evaluated.
6 non-naïve cynomolgus monkeys (999M-004, medicilon) with 2-5 kg, every 3 of which were in one group.
A certain amount of the compounds was weighed, 5% volume of DMSO, 30% PG, 30% PEG400 and 35% volume of normal saline were added, and the reaction mixture was subjected to vortex ultrasonic stirring for uniform mixing to give a clean administration solution at a concentration of 0.5 mg/mL.
Monkeys were intravenously injected with the compounds after fasting overnight, at a dose of 1.0 mg/kg and a volume of 2 mL/kg.
The compound of Example 1-1/Positive Control Example 1 was intravenously injected to monkeys, and 1 mL of blood was collected through femoral vein before administration and at 5 min, 0.25 h, 0.5 h, 1.0 h, 2.0 h, 4.0 h, 8.0 h, 12.0 h, 24 h, 32 h, 48 h, 56 h and 72 h after administration, respectively, and placed in EDTA-K2 anticoagulant blood collection tubes, plasma was centrifuged (centrifugal force: 2200 g, centrifugal time: 10 min, 2-8° C.), and stored at −80° C., and food intake was resumed 3 h after administration.

[3] = Thermodynamic stability test of atropisomerism (LC-MS); assay type: physicochemical
Description: Agilent 1200 DAD model LC-MS; column: waters sunfire C18, 4.6×75 mm, 3.5 μm; mobile phase: water (0.1% trifluoroacetic acid):acetonitrile (0.1% trifluoroacetic acid).
The compounds of Examples 1-1a, 1-1b were atropisomers of each other and had different retention times in the LC-MS spectra, and the tautomerism of the atropisomers could be detected by LC-MS.
Compound 1-1a (1.5 mg) was dissolved in acetonitrile (1.0 mL), and the reaction solution was heated at 40° C. for 1.0 h, and the change in purity of compound 1-1a was detected by LC-MS. Compound 1-1a (1.5 mg) was dissolved in dimethyl sulfoxide (1.0 mL), and the reaction solution was heated at 120° C. for 3.0 h, and the change in purity of compound 1-1a was detected by LC-MS.
The same procedure was used to test the change in purity of compound 1-1b at 40° C. and 120° C.
The compounds of Examples 5-1, 5-2 were atropisomers of each other and had different retention times in the LC-MS spectra, and the tautomerism of the atropisomers could be detected by LC-MS.
Compound 5-1 (1.0 mg) was dissolved in DMSO (1.0 mL), and the reaction solution was heated at 37° C. and 120° C. for 3.0 h, respectively, and the change in purity of compound 5-1 was detected by LC-MS.

HIV-1 capsid protein = molecular target: T1, HIV-1 capsid protein (Human immunodeficiency virus type 1 group M subtype B, UniProt P12493); assay: In vitro polymerization of HIV-1 capsid protein (His-CA/GST-CA, Eu cryptate/XL665 energy transfer); assay type: biochemical, HIV-1 NL4-3
T1 construct: made in house; host or cells: E. coli (pET30 vector)
Source text: • 1. MAb Anti GST-Eu cryptate (Cisbio) • 2. MAb Anti 6HIS-XL665 (Cisbio) • 3. His tag HIV-1 capsid protein (hereinafter referred to as His-CA) • 4. GST tag HIV-1 capsid protein (hereinafter referred to as GST-CA) • 5. 384-well unbound surface microplate, white (Corning) • 6. Microplate reader (BMG)
The HIV-1 capsid proteins aggregate spontaneously in high-salt solutions. Capsid protein sequences derived from HIV-1 NL4-3 strains (GeneBank AF324493.2) were separately tagged with 6His tag and GST tag sequences at the C-terminus, cloned into pET30 vectors, and expressed and separately tagged for expression in E. coli system and purified. His-CA and GST-CA were mixed at high-salt concentrations, and the level of polymerization of capsid proteins was detected using GST antibody labeled with Eu3+-Cryptate (energy donor) and His antibody labeled with XL665 (energy acceptor). Since the excitation spectrum of Eu3+-Cryptate overlapped with the excitation spectrum of XL665, when the capsid proteins with these two tags formed a poly complex, the energy donor and the energy acceptor could be drawn to a sufficiently close distance, the energy donor released part of the captured energy under the excitation of an external light source (such as a xenon lamp or a laser), with the emission wavelength being 620 nM, part of the resonance was transferred to the energy acceptor to excite the energy acceptor, with the emission wavelength being 665 nM, and an optical signal was generated, the signal intensity of which was in direct proportion to the degree of polymerization of the tag proteins.
His-CA was diluted to 2 μM in a clean tube with protein diluent (50 mM Tris-HCl, pH 8.0, 50 mM NaCl, 0.4 mM MgCl2, 0.05% Triton X-100, 2% glycerol) while MAb Anti 6HIS-XL665 at a final concentration of 260 nM was added; GST-CA was diluted to 20 nM with protein diluent in another clean tube while MAb Anti GST-Eu cryptate at a final concentration of 3.33 nM was added and incubated on ice for half an hour. Compounds were first formulated into a concentration of 20 mM with DMSO, then diluted to a first concentration of 2 mM with DMSO and serially 5-fold diluted to the 8th concentration. Control wells were set and added with DMSO, and serially-diluted compounds were then 20-fold diluted with protein diluent to 10-fold working concentrations. Preparation of capsid protein polymerization liquid at 2-fold concentration: 50 mM Tris-HCl, pH 8.0, 1 M NaCl, 800 mM KF; to a pre-cooled white round-bottomed 384-well plate were added 4 uL of His-CA-His antibody mixture, 4 uL of GST-CA-GST antibody mixture, 2 uL of the compounds at 10-fold concentration and 10 uL of capsid protein polymerization reaction liquid at 2-fold concentration, the plate was sealed with a light-shielding sealing plate membrane after uniformly mixing, and the reaction plate was placed in a 37° C. incubator for incubation for 2 h. After incubation, the samples were excited with an excitation light at 337 nM, and signal values at 620 nM and 665 nM were collected for detection, wherein Ratio values=(665 nM/620 nM signal)×10000 was calculated according to the signal values. IC50 values for compounds were calculated using Graphpad Prism software based on each concentration of the compounds and the corresponding Ratio values.

[4] = po, intragastric administration, 4 mg/kg
[5] = sc, subcutaneous injection, 6 mg/kg

| AUC(0-t) ([1]; intravenous injection, 1 mg/kg) [ng·h/mL] | half-life ([1]; intravenous injection, 1 mg/kg) [h] | Cmax ([1]; intravenous injection, 1 mg/kg) [ng/mL] | AUC(0-t) [1, 4] [ng·h/mL] | half-life [1, 4] [h] | Cmax [1, 4] [ng/mL] | AUC(0-t) [1, 5] [ng·h/mL] | Cmax [1, 5] [ng/mL] | Clearance CLz/F ([1]; intravenous injection, 1 mg/kg) [mL/min/kg] | Clearance CLz/F [2] [mL/min/kg] | AUC(0-t) ([2]; plasma, read-out: Area under curve AUC0-72) [ng·h/mL] | SMILES | atropisomer stability (change in purity by LC-MS) ([3]; heated at 37° C. for 3.0 h in DMSO) | atropisomer stability (change in purity by LC-MS) ([3]; heated at 120° C. for 3.0 h in dimethyl sulfoxide) | IC50 (HIV-1 capsid protein) [nM] | Imax (HIV-1 capsid protein; 37° C., 2 h incubation) [%] |
| --- | --- | --- | --- | --- | --- | --- | --- | --- | --- | --- | --- | --- | --- | --- | --- |
| 14700 | 13.7 | 1110 | 11200 | 23 | 414 | 17700 | 54.6 | 1.1 | 7.8 | 2130 | CC(C)(C#Cc1ccc(-c2ccc(Cl)c3c(NS(C)(=O)=O)nn(CC(F)(F)F)c23)c([C@H](Cc2cc(F)cc(F)c2)NC(=O)Cn2nc(C(F)(F)F)c3c2C(F)(F)[C@@H]2C[C@H]32)n1)S(C)(=O)=O [Positive Control Example 1, N—((S)-1-(3-(4-chloro-3-(methylsulfonamido)-1-(2,2,2-trifluoroethyl)-1H-indazol-7-yl)-6-(3-methyl-3-(methylsulfonyl)but-1-yn-1-yl)pyridin-2-yl)-2-(3,5-difluorophenyl)ethyl)-2-((3bS,4aR)-5,5-difluoro-3-(trifluoromethyl)-3b,4,4a,5-tetrahydro-1H-cyclopropa[3,4]cyclopenta[1,2-c]pyrazol-1-yl)acetamide, reference compound] | – | – | – | – |
| – | – | – | – | – | – | – | – | – | – | – | CC(C)(C#Cc1nc([C@H](Cc2cc(F)cc(F)c2)NC(=O)Cn2nc(C(F)(F)F)c3c2C(F)(F)[C@@H]2C[C@H]32)c(-c2ccc(Cl)c3c(NS(C)(=O)=O)nn(CC(F)(F)F)c23)c2c1CCCC2)S(C)(=O)=O (single isomer, unassigned) [Example 5-1] | stable single-configuration compound | stable single-configuration compound | 37 | 108 |
